Experimental data published in patent publication US8338641B2, “Method for treating atypical facial pain” (UCB Pharma GmbH, priority 2004, dated 2012).
“Also recorded” adds a separate entry of the source.

Experiments:
[1] = tested on: rats with infraorbital nerve injury; test: Motor deficits observed in rats with IoN injury after drug injection; type: in vivo, rat; details: i.p., doses 7.5-30 mg/kg
Experimental: (§1) Male and female Sprague-Dawley rats (Möllegård, Denmark) weighing 200-250 g at the start of the experiments were used. All experimental procedures were approved by the local research ethics committee.
(§2) SPM 927 was dissolved in physiological saline and injected intraperitoneally. The data are expressed as median±M.A.D. and analysed with Wilcoxon signed-ranks test.

[2] = tested on: rats with infraorbital nerve injury; test: Mechanical sensitivity (von Frey filaments) after photochemically-induced ischemic infraorbital nerve (IoN) injury, model of trigeminal neuropathic pain; type: in vivo, rat; details: for effect on mechanical hypersensitivity (response threshold to von Frey stimulation): 14-16 days after IoN injury
Experimental: as §1
Rats were anesthetized with chloral hydrate. The left IoN was exposed via a longitudinal incision at the maxillary region and all branches of the nerve were carefully lifted on a glass hook. A piece of aluminium foil was placed under the nerve and the nerve was irradiated for 6 min with the tunable argon ion laser. The rat was positioned so that the laser beam was perpendicular and transversal to the exposed nerve. Immediately before irradiation erythrosin B was injected i.v. and the injection was repeated after 5 min. After irradiation the wound was closed in layers.
Mechanical sensitivity was tested with a series of von Frey filaments. The rat was gently held by the experimenter and the von Frey filaments were applied in ascending order to the IoN territory on the hairy skin of the vibrissal pad. The stimulation with each filament consisted of four consecutive applications at 1/s on the injured and then on the contralateral side. […] The rats were habituated to the testing procedure for several days before nerve injury and baseline response was determined in two sessions. Testing was carried out 3, 7, 10 and 14 d after the injury to assess the development of mechanical hypersensitivity. The effect of SPM 927 (7.5, 15, and 30 mg/kg) was tested 14-16 days after injury when mechanical hypersensitivity was well established. Measurements were taken 30 min, 1 h, 2 h, and 3 h following drug injection.
as §2

SMILES: COC[C@@H](NC(C)=O)C(=O)NCc1ccccc1 [SPM 927, (R)-2-acetamide-N-benzyl-3-methoxypropionamide]
- motor deficits [1]: did not cause motor deficits
- effect on mechanical hypersensitivity (response threshold to von Frey stimulation) ([2]; female rats, 7.5 mg/kg i.p.): no effect
- effect on mechanical hypersensitivity (response threshold to von Frey stimulation) ([2]; female rats, 15 mg/kg i.p.): significantly and markedly alleviated mechanical hypersensitivity
- effect on mechanical hypersensitivity (response threshold to von Frey stimulation) ([2]; female rats, 20 mg/kg i.p.): significantly and markedly alleviated mechanical hypersensitivity
- effect on mechanical hypersensitivity (response threshold to von Frey stimulation) ([2]; male rats, 15 mg/kg i.p.): did not alleviate mechanical hypersensitivity
- effect on mechanical hypersensitivity (response threshold to von Frey stimulation) ([2]; male rats, 20 mg/kg i.p.): did not alleviate mechanical hypersensitivity
- effect on mechanical hypersensitivity (response threshold to von Frey stimulation) ([2]; male rats, 30 mg/kg i.p.): significantly alleviated mechanical hypersensitivity for 3 h
- overall analgesic or/and anti-allodynic effect in rat model of trigeminal neuropathic pain ([2]; systemic, single dose administration): dose-dependent analgesic or/and anti-allodynic effect; also recorded: significant efficacy in reducing mechanical hypersensitivity
